# Results reported in patent publication US20080312291A1, “Heterocyclic Gaba-b Modulators” (priority 2005, published 2008).
# Biological target: T1, GABABR1a/GABABR2 heterodimer (Homo sapiens, UniProt O75899+Q9UBS5)
# T1 construct: expressed in transfected cells; membranes prepared from it)
# Test: [35S]-GTPγS binding assay, potency of PAM
# Type: biochemical
# Conditions: potency of the positive allosteric modulator; log EC50 for GABA plotted against log concentration of modulator
# Text: GABABR1a and GABABR2 were cloned from human brain cDNA and subcloned into pCI-Neo(Promega) and pALTER-1 (Promega), respectively. A GABABR1a-Gαqi5 fusion protein expression vector was constructed using the pCI-Neo-GABABR1a cDNA plasmid and pLEC1-Gαqi5 (Molecular Devices, CA). In order to make the Gαqi5 pertussis toxin insensitive, Cys356 was mutated to Gly using standard PCR methodology with the primers 5′-[…]-3′ (forward) and 5′-GCGGCCG […]-3′ (reverse). The Gαqi5mut cDNA was ligated into the BamHI and NotI sites of pcDNA3.0 (Invitrogen). The GABAB R1a coding sequence was amplified by PCR from pCI-Neo-GABABR1a using the primers, 5′-[…]-3′ (forward) and 5′-[…]-3′ (reverse) and subcloned into the BamHI site of pcDNA3.0-Gαqi5mut. […]
# [^35S]-GTPγS binding assays were performed at 30° C. for 45 min in membrane buffer (100 mM NaCl, […], 1 mM EDTA, 5 mM HEPES, pH 7.4) containing 0.025 μg/μl of membrane protein (prepared from the cell lines described above) with 0.01% bovine serum albumin (fatty acid free), 10 μM GDP, 100 μM DTT and 0.53 nM [^35S]-GTPγS (Amersham Pharmacia Biotech) in a final volume of 200 μl. Nonspecific binding was determined in the presence of 20 μM GTPγS. […]
# T1 sequence (Q9UBS5 15-961 limits assumed): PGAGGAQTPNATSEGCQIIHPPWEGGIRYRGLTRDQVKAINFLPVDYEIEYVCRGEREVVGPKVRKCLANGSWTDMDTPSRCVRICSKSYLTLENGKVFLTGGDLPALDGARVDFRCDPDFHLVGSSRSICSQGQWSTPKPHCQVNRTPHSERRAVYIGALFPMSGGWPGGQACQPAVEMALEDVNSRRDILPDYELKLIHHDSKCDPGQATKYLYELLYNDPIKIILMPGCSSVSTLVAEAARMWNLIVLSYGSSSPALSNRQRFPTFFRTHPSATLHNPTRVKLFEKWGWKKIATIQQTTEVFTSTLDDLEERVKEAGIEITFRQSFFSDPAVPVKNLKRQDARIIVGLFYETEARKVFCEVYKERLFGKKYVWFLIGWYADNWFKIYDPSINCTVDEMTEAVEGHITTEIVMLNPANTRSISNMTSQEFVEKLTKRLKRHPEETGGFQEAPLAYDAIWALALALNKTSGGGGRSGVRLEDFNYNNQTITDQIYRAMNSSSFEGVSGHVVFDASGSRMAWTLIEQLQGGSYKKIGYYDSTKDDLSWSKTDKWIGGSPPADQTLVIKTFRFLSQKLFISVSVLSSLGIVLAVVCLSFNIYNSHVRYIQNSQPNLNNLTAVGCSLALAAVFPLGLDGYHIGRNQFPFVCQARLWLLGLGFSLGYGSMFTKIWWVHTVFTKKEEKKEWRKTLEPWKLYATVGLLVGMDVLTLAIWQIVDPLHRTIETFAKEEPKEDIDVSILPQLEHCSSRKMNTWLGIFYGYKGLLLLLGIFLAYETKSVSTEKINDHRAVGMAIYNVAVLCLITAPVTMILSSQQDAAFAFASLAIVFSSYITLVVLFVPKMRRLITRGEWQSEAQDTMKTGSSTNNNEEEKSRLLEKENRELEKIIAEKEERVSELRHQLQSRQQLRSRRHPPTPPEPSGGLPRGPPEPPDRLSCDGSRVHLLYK
# T1 sequence (O75899 42-941): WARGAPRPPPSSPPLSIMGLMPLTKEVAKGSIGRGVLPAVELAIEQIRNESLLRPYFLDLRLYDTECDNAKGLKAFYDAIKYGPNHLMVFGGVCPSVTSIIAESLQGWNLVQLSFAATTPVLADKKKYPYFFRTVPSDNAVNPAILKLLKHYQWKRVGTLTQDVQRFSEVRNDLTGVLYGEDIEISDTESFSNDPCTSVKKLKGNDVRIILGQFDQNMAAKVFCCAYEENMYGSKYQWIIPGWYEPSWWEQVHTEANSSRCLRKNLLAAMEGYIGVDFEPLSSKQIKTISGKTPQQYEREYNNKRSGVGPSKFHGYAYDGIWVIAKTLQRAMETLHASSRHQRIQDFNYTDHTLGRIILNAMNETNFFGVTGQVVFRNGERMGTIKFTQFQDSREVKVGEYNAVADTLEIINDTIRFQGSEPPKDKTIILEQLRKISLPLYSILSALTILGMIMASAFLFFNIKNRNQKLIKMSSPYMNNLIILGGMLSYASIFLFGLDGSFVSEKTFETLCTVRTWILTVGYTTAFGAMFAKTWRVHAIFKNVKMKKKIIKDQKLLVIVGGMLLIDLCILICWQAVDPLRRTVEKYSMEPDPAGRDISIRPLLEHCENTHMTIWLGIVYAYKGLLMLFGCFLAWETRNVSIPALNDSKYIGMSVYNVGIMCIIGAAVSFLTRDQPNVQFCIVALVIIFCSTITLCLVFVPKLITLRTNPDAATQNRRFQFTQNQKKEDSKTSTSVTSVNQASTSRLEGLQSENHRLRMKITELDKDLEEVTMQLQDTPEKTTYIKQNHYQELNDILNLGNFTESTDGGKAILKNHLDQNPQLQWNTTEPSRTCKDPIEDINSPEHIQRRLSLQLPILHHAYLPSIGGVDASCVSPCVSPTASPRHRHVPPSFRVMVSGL
row,EC50 [µM],SMILES
1,1.96,"CCOC(=O)c1nc(C(C)C)sc1NC(=O)C(CC)c1ccccc1 (centres unmarked) [Example 16, Ethyl 2-isopropyl-5-[(2-phenylbutanoyl)amino]-1,3-thiazole-4-carboxylate]"
2,7.23,"CCOC(=O)c1nc(C(C)C)oc1NC(=O)c1ccc(C(C)(C)C)cc1 [Example 21, Ethyl 5-[(4-tert-butylbenzoyl)amino]-2-isopropyl-1,3-oxazole-4-carboxylate]"
